What all share (assay type): functional
Assay [1] concerns Staphylococcus aureus. In words: Antibacterial activity against Staphylococcus aureus at 150 mg/ml after 24 hrs by well diffusion assay. The conditions noted are these: read-out: DIZ. (In general: Agar diffusion results depend on both activity and mobility in agar.)
For assay [2], the system named is Vibrio cholerae. In words: Antibacterial activity against Vibrio cholerae after 18 to 24 hrs by microdilution broth assay. On the technique in general: In broth dilution the organism is exposed to a series of concentrations in liquid medium.
Assay [3] deals with Escherichia coli. The experiment in a line: Antibacterial activity against Escherichia coli at 150 mg/ml after 24 hrs by well diffusion assay. The conditions noted are these: read-out: DIZ.
Assay [4] has as its system Staphylococcus aureus. In words: Antibacterial activity against Staphylococcus aureus at 100 mg/ml after 24 hrs by well diffusion assay. The conditions noted are these: read-out: DIZ.
Assay [5] deals with Bacillus subtilis. In words: Antibacterial activity against Bacillus subtilis at 150 mg/ml after 24 hrs by well diffusion assay. As to conditions: read-out: DIZ.
Assay [6] deals with Bacillus subtilis. In words: Antibacterial activity against Bacillus subtilis after 18 to 24 hrs by microdilution broth assay.
Assay [7] concerns Vibrio cholerae. In words: Antibacterial activity against Vibrio cholerae at 125 mg/ml after 24 hrs by well diffusion assay. As to conditions: read-out: DIZ.
The subject of assay [8] is Radical scavenging activity. The experiment in a line: Antioxidant activity assessed as DPPH radical scavenging activity after 30 mins. Details: concentration or dose not given beside the values. Background: DPPH is a stable violet radical that fades when it is reduced.
The test system of assay [9] is Escherichia coli. In words: Antibacterial activity against Escherichia coli after 18 to 24 hrs by microdilution broth assay.
Assay [10] deals with Klebsiella pneumoniae. In words: Antibacterial activity against Klebsiella pneumoniae at 125 mg/ml after 24 hrs by well diffusion assay. As to conditions: read-out: DIZ.
For assay [11], the system named is Klebsiella pneumoniae. In words: Antibacterial activity against Klebsiella pneumoniae after 18 to 24 hrs by microdilution broth assay.
Assay [12] has as its system Staphylococcus aureus. In words: Antibacterial activity against Staphylococcus aureus after 18 to 24 hrs by microdilution broth assay.
For assay [13], the system named is Vibrio cholerae. The experiment in a line: Antibacterial activity against Vibrio cholerae at 100 mg/ml after 24 hrs by well diffusion assay. As to conditions: read-out: DIZ.
The test system of assay [14] is Staphylococcus aureus. In words: Antibacterial activity against Staphylococcus aureus at 125 mg/ml after 24 hrs by well diffusion assay. The conditions noted are these: read-out: DIZ.
Assay [15] relates to Klebsiella pneumoniae. The experiment in a line: Antibacterial activity against Klebsiella pneumoniae at 150 mg/ml after 24 hrs by well diffusion assay. The conditions noted are these: read-out: DIZ.
The subject of assay [16] is Escherichia coli. In words: Antibacterial activity against Escherichia coli at 125 mg/ml after 24 hrs by well diffusion assay. The conditions noted are these: read-out: DIZ.
For assay [17], the system named is Vibrio cholerae. In words: Antibacterial activity against Vibrio cholerae at 150 mg/ml after 24 hrs by well diffusion assay. As to conditions: read-out: DIZ.
Assay [18] has as its system Klebsiella pneumoniae. In words: Antibacterial activity against Klebsiella pneumoniae at 100 mg/ml after 24 hrs by well diffusion assay. As to conditions: read-out: DIZ.
Assay [19] has as its system Bacillus subtilis. In words: Antibacterial activity against Bacillus subtilis at 125 mg/ml after 24 hrs by well diffusion assay. The conditions noted are these: read-out: DIZ.
In assay [20] the test system is Bacillus subtilis. The experiment in a line: Antibacterial activity against Bacillus subtilis at 100 mg/ml after 24 hrs by well diffusion assay. As to conditions: read-out: DIZ.
Assay [21] concerns Escherichia coli. The experiment in a line: Antibacterial activity against Escherichia coli at 100 mg/ml after 24 hrs by well diffusion assay. As to conditions: read-out: DIZ.

Structures are written as SMILES. ≈ marks a conversion by molar mass, not a printed value.

Three molecules from ChEMBL document CHEMBL2390923, “Synthesis of 7-oxabicyclo[2.2.1]hept-5-en-2-yl derivatives and their screening for antimicrobial and antioxidant properties” (2013) can be followed below.

Regarding `CCC12C=CC(O1)C(C(=O)c1ccccc1)C2c1cccc(F)c1` (stereo not given), the zone of inhibition at 150000 µg/mL with Staphylococcus aureus [1] amounted to 16 mm; with Escherichia coli [3], 12 mm; in the assay on Bacillus subtilis [5] it was 12 mm; in the assay with Klebsiella pneumoniae [15], 12 mm; in the assay on Vibrio cholerae [17] it was 15 mm. The MIC (commonly the lowest concentration that inhibits growth of the organism) was 625 µg/mL (≈ 1940 µM) in the assay on Vibrio cholerae [2]; 1250 µg/mL (≈ 3880 µM) in the assay with Bacillus subtilis [6]; 1250 µg/mL (≈ 3880 µM) with Escherichia coli [9]; 312 µg/mL (≈ 968 µM) in the assay on Klebsiella pneumoniae [11]; 625 µg/mL (≈ 1940 µM) against Staphylococcus aureus [12]. Also, the zone of inhibition at 100000 µg/mL amounted to 11 mm in the assay on Staphylococcus aureus [4] and 12 mm with Vibrio cholerae [13]. Further, the zone of inhibition at 125000 µg/mL in the assay on Vibrio cholerae [7] amounted to 14 mm; in the assay on Klebsiella pneumoniae [10], 11 mm; in the assay with Staphylococcus aureus [14], 14 mm; in the assay on Escherichia coli [16], 11 mm. For the same molecule, in assay [8], the inhibition (as a rule, the change of the read-out against control, counted positive when it falls) was found to be 22.3%.
As for `O=C(O)c1cn(C2CC2)c2cc(N3CCNCC3)c(F)cc2c1=O` [CIPROFLOXACIN], the zone of inhibition at 150000 µg/mL in the assay on Staphylococcus aureus [1] turned out to be 16 mm; with Bacillus subtilis [5], 18 mm; with Klebsiella pneumoniae [15] it was 23 mm; in the assay with Vibrio cholerae [17], 16 mm. Also, the MIC against Vibrio cholerae [2] is 15 µg/mL (≈ 45.3 µM); against Bacillus subtilis [6] it was 125 µg/mL (≈ 377 µM); against Escherichia coli [9] it was 62 µg/mL (≈ 187 µM); in the assay with Klebsiella pneumoniae [11] it was 7 µg/mL (≈ 21.1 µM); in the assay with Staphylococcus aureus [12], 15 µg/mL (≈ 45.3 µM). In addition, the zone of inhibition at 100000 µg/mL with Staphylococcus aureus [4] is 16 mm; in the assay with Klebsiella pneumoniae [18], 23 mm; with Bacillus subtilis [20], 18 mm; with Vibrio cholerae [13] it was 16 mm. Further, the zone of inhibition at 125000 µg/mL in the assay on Vibrio cholerae [7] came to 16 mm; with Bacillus subtilis [19], 18 mm; in the assay with Klebsiella pneumoniae [10] it was 23 mm; in the assay with Staphylococcus aureus [14] it was 16 mm.
Turning to `CCC12C=CC(O1)C(C(=O)c1ccccc1)C2c1ccccc1Cl` (stereo not given), the zone of inhibition at 100000 µg/mL in the assay with Escherichia coli [21] turned out to be 13 mm; with Staphylococcus aureus [4], 12 mm; with Klebsiella pneumoniae [18] it was 9 mm; with Bacillus subtilis [20] it was 10 mm; in the assay with Vibrio cholerae [13], 11 mm. Also, the zone of inhibition at 150000 µg/mL worked out at 16 mm with Staphylococcus aureus [1]; 16 mm in the assay with Escherichia coli [3]; 13 mm with Bacillus subtilis [5]; 12 mm in the assay on Klebsiella pneumoniae [15]; 14 mm with Vibrio cholerae [17]. Also, the MIC was found to be 625 µg/mL (≈ 1840 µM) against Vibrio cholerae [2]; 1250 µg/mL (≈ 3690 µM) against Bacillus subtilis [6]; 1250 µg/mL (≈ 3690 µM) against Escherichia coli [9]; 625 µg/mL (≈ 1840 µM) in the assay on Klebsiella pneumoniae [11]; 1250 µg/mL (≈ 3690 µM) in the assay on Staphylococcus aureus [12]. For the same molecule, the zone of inhibition at 125000 µg/mL came to 12 mm in the assay with Vibrio cholerae [7]; 12 mm in the assay on Bacillus subtilis [19]; 11 mm in the assay with Klebsiella pneumoniae [10]; 15 mm with Staphylococcus aureus [14]; 14 mm in the assay with Escherichia coli [16]. For the same molecule, the inhibition in assay [8] turned out to be 22.2%.
